# Earlier results in article PMC4931877 (The Journal of Pharmacology and Experimental Therapeutics, 2016).
# Test system: γ-secretase
# Conditions: ref Fleisher et al., 2008; Coric et al., 2012; Doody et al., 2013; cited from earlier work
row,SMILES,outcome of mild-moderate AD clinical trials
1,"NC(=O)[C@@H](CCC(F)(F)F)N(Cc1ccc(-c2ncon2)cc1F)S(=O)(=O)c1ccc(Cl)cc1 [BMS-708163, (2R)-2-[(4-chlorophenyl)sulfonyl-[[2-fluoro-4-(1,2,4-oxadiazol-3-yl)phenyl]methyl]amino]-5,5,5-trifluoropentanamide]",Notch-related nonmelanoma skin cancers and/or progression and worsening of cognitive measures
2,CC(C)[C@H](O)C(=O)N[C@@H](C)C(=O)N[C@@H]1C(=O)N(C)CCc2ccccc21 [LY450139],Notch-related nonmelanoma skin cancers and/or progression and worsening of cognitive measures
